Patent publication US5508413A, “(+)-5-isopropyl 3-methyl 2-cyano-6 methyl-4-(3-nitrophenyl)-1, 4-dihydropyridine-3, 5-dicarboxylate” (priority 1991, dated 1996)
In brackets after ≈: the same amount, converted by molar mass.

How the values were obtained:
Anesthetized Dogs = assay: Measurement of Arterial Blood Pressure in Anesthetized Dogs; type: in vivo, Mongrel dogs; settings: for blood pressure / ratio of blood pressure change as compared to the normal blood pressure: anesthetized dogs
Procedure: [A] Measurement of Arterial Blood Pressure in Anesthetized Dogs
Mongrel dogs weighing 11.8 to 19.0 kg were used. The dogs were anesthetized by intraperitoneal injection of pentobarbital sodium (35 mg/kg). The blood pressure was measured with a pressure transducer in the left femoral artery. The values of blood pressure were recorded on a polygraph. The right femoral vein was cannulated and the cumulative dose (0.01, 0.032, 0.1, 0.32, 1, 3.2, 10, 32 and 100 μg/kg) of the solution of Test Compounds dissolved in a mixture of polyethylene glycol, ethanol and water was intravenously injected in a volume of 0.2 ml/kg.
The values of blood pressure were shown in the following table with an expression of mm/Hg.
note: The values of the parentheses mean the ratio of blood pressure
change (%) in each dose as compared to the normal blood pressure.

[1] = orally administered; background statement; cited from earlier work
[2] = Solubility Test (in water at ambient temperature); type: physicochemical; settings: for solubility: in water, ambient temperature
Procedure: [B] Solubility Test Test Method Solubility of Test Compound A and Nilvadipine in water was measured at ambient temperature.

[3] = background statement; cited from earlier work
[4] = cumulative i.v. dose 0.32 μg/kg
[5] = as compared to its optically inactive racemate, Nilvadipine

solubility [2] [µg/mL] | solubility (in words) [2, 5] | SMILES | blood pressure (Anesthetized Dogs; [4]) [mm/Hg] | ratio of blood pressure change as compared to the normal blood pressure (Anesthetized Dogs; [4]) | blood pressure (Anesthetized Dogs; cumulative i.v. dose 1 μg/kg) [mm/Hg] | ratio of blood pressure change as compared to the normal blood pressure (Anesthetized Dogs; cumulative i.v. dose 1 μg/kg) | blood pressure (Anesthetized Dogs; cumulative i.v. dose 3.2 μg/kg) [mm/Hg] | ratio of blood pressure change as compared to the normal blood pressure (Anesthetized Dogs; cumulative i.v. dose 3.2 μg/kg) [%] | blood pressure (Anesthetized Dogs; cumulative i.v. dose 10 μg/kg) [mm/Hg] | ratio of blood pressure change as compared to the normal blood pressure (Anesthetized Dogs; cumulative i.v. dose 10 μg/kg) [%] | blood pressure (Anesthetized Dogs; cumulative i.v. dose 32 μg/kg) [mm/Hg] | ratio of blood pressure change as compared to the normal blood pressure (Anesthetized Dogs; cumulative i.v. dose 32 μg/kg) [%] | blood pressure (Anesthetized Dogs; cumulative i.v. dose 100 μg/kg) [mm/Hg] | ratio of blood pressure change as compared to the normal blood pressure (Anesthetized Dogs; cumulative i.v. dose 100 μg/kg) [%] | absorbability of said drug into a body (in words) [1] | solubility in water (in words) [3] | hypotensive and vasodilating activities (in words) (Anesthetized Dogs; [5])
0.6 (≈ 1.56 µM) |  | COC(=O)C1=C(C#N)NC(C)=C(C(=O)OC(C)C)C1c1cccc([N+](=O)[O-])c1 (racemic) [Nilvadipine, (±)-5-isopropyl 3-methyl 2-cyano-6-methyl-4-(3-nitrophenyl)-1,4-dihydropyridine-3,5-dicarboxylate] | 104 ± 6 | +6 ± 1% | 103 ± 5 | +5 ± 1% | 100 ± 4 | -3 ± 2 | 90 ± 3 | -7 ± 5 | 83 ± 5 | -15 ± 6 | 65 ± 6 | -34 ± 6 | not so good | only slightly soluble in water | 
 | higher solubility | COC(=O)C1=C(C#N)NC(C)=C(C(=O)OC(C)C)C1c1cccc([N+](=O)[O-])c1 (single isomer, unassigned; (+)) [(+)-5-isopropyl 3-methyl 2-cyano-6-methyl-4-(3-nitrophenyl)-1,4-dihydropyridine-3,5-dicarboxylate] |  |  |  |  |  |  |  |  |  |  |  |  |  |  | much stronger and more lasting hypotensive and vasodilating activities
4.7 (≈ 12.2 µM) |  | COC(=O)C1=C(C#N)NC(C)=C(C(=O)OC(C)C)C1c1cccc([N+](=O)[O-])c1 (single isomer, unassigned; (+)) [Test Compound A, (+)-5-isopropyl 3-methyl 2-cyano-6-methyl-4-(3-nitrophenyl)-1,4-dihydropyridine-3,5-dicarboxylate] | 117 ± 6 | -2 ± 1% | 114 ± 6 | -5 ± 1% | 101 ± 7 | -16 ± 2 | 74 ± 6 | -39 ± 2 | 64 ± 7 | -47 ± 4 | 58 ± 6 | -52 ± 3 |  |  | 
